Test results from patent publication US20080241904A1, “PROCESS FOR PRODUCING ISOMALTOSE AND USES THEREOF” (KABUSHIKI KAISHA HAYASHIBARA SEIBUTSU KAGAKU KENKYUJO, priority 2001, published 2008).

Experiments:
Assay type in all cases: biochemical
[1] = test system: α-isomaltosylglucosaccharide-forming enzyme from Bacillus globisporus C11; assay: Action of α-isomaltosylglucosaccharide-forming enzyme on saccharides as substrates (TLC), enzyme of Strain C11; parameters: key: −: it showed no change; +: it showed a slight reduction of the color of substrate spot and the formation of other reaction product; ++: it showed a high reduction of the color of substrate spot and the formation of other reaction product; +++: it showed a substantial disappearance of the color of substrate spot and the formation of other reaction product; details: two units/g substrate, substrate 2% (w/v), 30° C., pH 6.0, 24 hours
Description: (§1) The action of α-isomaltosylglucosaccharide-forming enzyme on saccharides as substrates was tested. First, a solution of maltose, maltotriose, maltotetraose, maltopentaose, maltohexaose, maltoheptaose, isomaltose, isomaltotriose, panose, isopanose, α,α-trehalose (may be abbreviated as “trehalose” hereinafter), kojibiose, nigerose, neotrehalose, cellobiose, gentibiose, maltitol, maltotriitol, lactose, sucrose, erlose, selaginose, maltosyl glucoside, or isomaltosyl glucoside was prepared. To each of the above solutions was added two units/g substrate of the purified specimen of α-isomaltosylglucosaccharide-forming enzyme from Bacillus globisporus C9 in Experiment 2-1 or Bacillus globisporus C11 in Experiment 4-1, and each resulting solution was adjusted to give a substrate concentration of 2% (w/v) and incubated at 30° C. and pH 6.0 for 24 hours. The solutions before and after the enzymatic reactions were respectively subjected to thin-layer chromatography (abbreviated as “TLC” hereinafter). TLC was carried out in such a manner of separating saccharides by developing the solutions twice each using, as a developer, a mixture solution of n-butanol, pyridine, and water (=6:4:1), and, as a thin-layer plate, “[…] 60”, an aluminum plate (20×20 cm) for TLC commercialized by Merck & Co., Inc., Rahway, USA.; detecting the total saccharides in each mixture solution by spraying a mixture of sulfuric acid and methanol onto the aluminum plates to develop color of the total saccharides and detecting non-reducing saccharides in each mixture solution by the diphenylamine-aniline method.

[2] = test system: α-isomaltosylglucosaccharide-forming enzyme from Bacillus globisporus C9; assay: Action of α-isomaltosylglucosaccharide-forming enzyme on saccharides as substrates (TLC), enzyme of Strain C9; parameters: key: −: it showed no change; +: it showed a slight reduction of the color of substrate spot and the formation of other reaction product; ++: it showed a high reduction of the color of substrate spot and the formation of other reaction product; +++: it showed a substantial disappearance of the color of substrate spot and the formation of other reaction product; details: two units/g substrate, substrate 2% (w/v), 30° C., pH 6.0, 24 hours
Description: as §1

[3] = test system: α-isomaltosylglucosaccharide-forming enzyme from Bacillus globisporus C11 strain; assay: Specificity of saccharide transferring reaction acceptor, enzyme of Strain C11; parameters: key: −: no saccharide-transferred product was detected through transferring reaction to acceptor; ±: a saccharide-transferred product was detected in an amount of less than one percent through transfer reaction to acceptor; +: a saccharide-transferred product was detected in an amount of at least one percent but less than ten percent through transferring reaction to acceptor; ++: a saccharide-transferred product was detected in an amount of at least ten percent through transferring reaction to acceptor; details: 1.6% acceptor, 4% PINE-DEX #100 as donor, one unit/g donor, 30° C., pH 6.0, 24 hours; GLC or HPLC
Description: (§2) Using different saccharides, it was tested whether the saccharides were used as saccharide transferring reaction acceptors for the α-isomaltosylglucosaccharide-forming enzyme. A 1.6% solution, as a solution of saccharide transferring reaction acceptor, of D-glucose, D-xylose, L-xylose, D-galactose, D-fructose, D-mannose, D-arabinose, D-fucose, L-sorbose, L-rhamnose, methyl-α-glucopyranoside (methyl-α-glucose), methyl-β-glucopyranoside ([…]), N-acetyl-glucosamine, sorbitol, α,α-trehalose, isomaltose, isomaltotriose, cellobiose, gentibiose, maltitol, lactose, sucrose, α-cyclodextrin, β-cyclodextrin, or γ-cyclodextrin, was prepared. To each solution with a saccharide concentration was added “PINE-DEX #100”, a partial starch hydrolysate, as a saccharide donor, to give a concentration of 4%, and admixed with one unit/g saccharide donor, d.s.b., of either of purified specimens of α-isomaltosylglucosaccharide-forming enzyme from Bacillus globisporus C9 strain obtained by the method in Experiment 2-1, Bacillus globisporus C11 strain obtained by the method in Experiment 4-1. The resulting mixture solutions were incubated at 30° C. and pH 6.0 except that the enzyme from Arthrobacter globiformis A19 strain was incubated at pH 8.4 for 24 hours. The reaction mixtures of the post-enzymatic reactions were analyzed on gas chromatography (abbreviated as “GLC” hereinafter) for monosaccharides and disaccharides as acceptors, and on HPLC for trisaccharides as acceptors to confirm whether these saccharides could be used as their saccharide transferring reaction acceptors. In the case of performing GLC, the following apparatuses and conditions are used: GLC apparatus, “GC-16A” commercialized by Shimadzu Corporation, Tokyo, Japan; column, a stainless-steel column, 3 mm in diameter and 2 m in length, packed with 2% “SILICONE OV-17/CHROMOSOLV W”, commercialized by GL Sciences Inc., Tokyo, Japan; carrier gas, nitrogen gas at a flow rate of 40 ml/min under temperature conditions of increasing from 160° C. to 320° C. at an increasing temperature rate of 7.5° C./min; and detection, a hydrogen flame ionization detector.
(§3) In the case of HPLC analysis, the apparatuses and conditions used were: HPLC apparatus, “CCPD” commercialized by Tosoh Corporation, Tokyo, Japan; column, “ODS-AQ-303” commercialized by YMC Co., Ltd., Tokyo, Japan; eluent, water at a flow rate of 0.5 ml/min; and detection, a differential refractometer.

[4] = test system: α-isomaltosylglucosaccharide-forming enzyme from Bacillus globisporus C9 strain; assay: Specificity of saccharide transferring reaction acceptor, enzyme of Strain C9; parameters: key: −: no saccharide-transferred product was detected through transferring reaction to acceptor; ±: a saccharide-transferred product was detected in an amount of less than one percent through transfer reaction to acceptor; +: a saccharide-transferred product was detected in an amount of at least one percent but less than ten percent through transferring reaction to acceptor; ++: a saccharide-transferred product was detected in an amount of at least ten percent through transferring reaction to acceptor; details: 1.6% acceptor, 4% PINE-DEX #100 as donor, one unit/g donor, 30° C., pH 6.0, 24 hours; GLC or HPLC
Description: as §2, §3

With maltopentaose the “Enzymatic action, Enzyme of Strain C11” value [1] was “+++” and the “Enzymatic action, Enzyme of Strain C9” value [2] was “+++”.

For maltohexaose, the “Enzymatic action, Enzyme of Strain C11” value [1] was “+++” and the “Enzymatic action, Enzyme of Strain C9” value [2] was “+++”.

With maltotriose the “Enzymatic action, Enzyme of Strain C11” value [1] was “++” and the “Enzymatic action, Enzyme of Strain C9” value [2] was “++”.

In the case of maltoheptaose, the “Enzymatic action, Enzyme of Strain C11” value [1] was “+++” and the “Enzymatic action, Enzyme of Strain C9” value [2] was “+++”.

With `OC[C@H]1O[C@@](CO)(O[C@H]2O[C@H](CO)[C@@H](O[C@H]3O[C@H](CO)[C@@H](O)[C@H](O)[C@H]3O)[C@H](O)[C@H]2O)[C@@H](O)[C@@H]1O` [Erlose, erlose] the “Enzymatic action, Enzyme of Strain C11” value [1] was “+” and the “Enzymatic action, Enzyme of Strain C9” value [2] was “+”.

With `OC[C@H]1O[C@H](O[C@H]2O[C@H](CO)[C@@H](O)[C@H](O)[C@H]2O[C@H]2O[C@H](CO)[C@@H](O)[C@H](O)[C@H]2O)[C@H](O)[C@@H](O)[C@@H]1O` [Selaginose, selaginose] the “Enzymatic action, Enzyme of Strain C11” value [1] was “−” and the “Enzymatic action, Enzyme of Strain C9” value [2] was “−”.

`OC[C@H]1O[C@H](O[C@H]2[C@H](O)[C@@H](O)[C@@H](O[C@H]3[C@H](O)[C@@H](O)[C@@H](O[C@H]4[C@H](O)[C@@H](O)C(O)O[C@@H]4CO)O[C@@H]3CO)O[C@@H]2CO)[C@H](O)[C@@H](O)[C@@H]1O` (stereo partly drawn) [Maltotetraose, maltotetraose] was tested, and the “Enzymatic action, Enzyme of Strain C11” value [1] was “+++” and the “Enzymatic action, Enzyme of Strain C9” value [2] was “+++”.

In the case of `OC[C@H]1O[C@H](O[C@H]2O[C@H](CO)[C@@H](O[C@H]3O[C@H](CO)[C@@H](O)[C@H](O)[C@H]3O)[C@H](O)[C@H]2O)[C@H](O)[C@@H](O)[C@@H]1O` [Maltosylglucoside, maltosyl glucoside], the “Enzymatic action, Enzyme of Strain C11” value [1] was “++” and the “Enzymatic action, Enzyme of Strain C9” value [2] was “++”.

For `OC[C@H]1O[C@H](O[C@H]2[C@H](O)[C@@H](O)[C@@H](OC[C@H]3OC(O)[C@H](O)[C@@H](O)[C@@H]3O)O[C@@H]2CO)[C@H](O)[C@@H](O)[C@@H]1O` (stereo partly drawn) [Isopanose, isopanose], the “Enzymatic action, Enzyme of Strain C11” value [1] was “++” and the “Enzymatic action, Enzyme of Strain C9” value [2] was “++”.

With “isomaltosyl glucoside [Isomaltosylglucoside]” the “Enzymatic action, Enzyme of Strain C11” value [1] was “−” and the “Enzymatic action, Enzyme of Strain C9” value [2] was “−”.

With `OC[C@H]1O[C@H](O[C@H]2[C@H](O)[C@@H](O)[C@H](O)O[C@@H]2CO)[C@H](O)[C@@H](O)[C@@H]1O` [Maltose, maltose] the “Enzymatic action, Enzyme of Strain C11” value [1] was “+” and the “Enzymatic action, Enzyme of Strain C9” value [2] was “+”.

`OC[C@@H](O)[C@@H](O)[C@H](O)[C@@H](O)CO` [Sorbitol, sorbitol] was tested, and the “Product of saccharide transferring reaction, Enzyme of Strain C11” value (shortened to “Product … of Strain C11”) [3] was “−” and the “Product of saccharide transferring reaction, Enzyme of Strain C9” value (“Product … of Strain C9” for short) [4] was “−”.

`CO[C@H]1O[C@H](CO)[C@@H](O)[C@H](O)[C@H]1O` [Methyl-α-glucopyranoside, methyl-α-glucopyranoside] was tested, and the “Product … of Strain C11” value [3] was “++ (a saccharide-transferred product was detected in an amount of at least ten percent through transferring reaction to acceptor)” and the “Product … of Strain C9” value [4] was “++ (a saccharide-transferred product was detected in an amount of at least ten percent through transferring reaction to acceptor)”.

`O=C[C@H](O)[C@@H](O)[C@@H](O)[C@H](O)CO` [D-Galactose, D-galactose] was tested, and the “Product … of Strain C11” value [3] was “+ (a saccharide-transferred product was detected in an amount of at least one percent but less than ten percent through transferring reaction to acceptor)” and the “Product … of Strain C9” value [4] was “+ (a saccharide-transferred product was detected in an amount of at least one percent but less than ten percent through transferring reaction to acceptor)”.

For `OC[C@H]1O[C@H](O[C@H]2C(O)O[C@H](CO)[C@@H](O)[C@@H]2O)[C@H](O)[C@@H](O)[C@@H]1O` (stereo partly drawn) [Kojibiose, kojibiose], the “Enzymatic action, Enzyme of Strain C11” value [1] was “+” and the “Enzymatic action, Enzyme of Strain C9” value [2] was “+”.

`OC[C@H]1O[C@H](OC[C@H]2O[C@H](O[C@H]3[C@H](O)[C@@H](O)C(O)O[C@@H]3CO)[C@H](O)[C@@H](O)[C@@H]2O)[C@H](O)[C@@H](O)[C@@H]1O` (stereo partly drawn) [Panose, panose] was tested, and the “Enzymatic action, Enzyme of Strain C11” value [1] was “−” and the “Enzymatic action, Enzyme of Strain C9” value [2] was “−”.

For `CC(=O)N[C@H]1C(O)O[C@H](CO)[C@@H](O)[C@@H]1O` (stereo partly drawn) [N-Acetyl-glucosamine, N-acetyl-glucosamine], the “Product … of Strain C11” value [3] was “+ (a saccharide-transferred product was detected in an amount of at least one percent but less than ten percent through transferring reaction to acceptor)” and the “Product … of Strain C9” value [4] was “+ (a saccharide-transferred product was detected in an amount of at least one percent but less than ten percent through transferring reaction to acceptor)”.

With `OC[C@H]1O[C@H](O[C@H]2[C@H](O)[C@@H](CO)OC(O)[C@@H]2O)[C@H](O)[C@@H](O)[C@@H]1O` (stereo partly drawn) [Nigerose, nigerose] the “Enzymatic action, Enzyme of Strain C11” value [1] was “+” and the “Enzymatic action, Enzyme of Strain C9” value [2] was “+”.

`OC[C@H]1O[C@@H]2O[C@H]3[C@H](O)[C@@H](O)[C@@H](O[C@H]4[C@H](O)[C@@H](O)[C@@H](O[C@H]5[C@H](O)[C@@H](O)[C@@H](O[C@H]6[C@H](O)[C@@H](O)[C@@H](O[C@H]7[C@H](O)[C@@H](O)[C@@H](O[C@H]1[C@H](O)[C@H]2O)O[C@@H]7CO)O[C@@H]6CO)O[C@@H]5CO)O[C@@H]4CO)O[C@@H]3CO` [α-Cyclodextrin, α-cyclodextrin] was tested, and the “Product … of Strain C11” value [3] was “−” and the “Product … of Strain C9” value [4] was “−”.

With `OC[C@H]1O[C@@H]2O[C@H]3[C@H](O)[C@@H](O)[C@@H](O[C@H]4[C@H](O)[C@@H](O)[C@@H](O[C@H]5[C@H](O)[C@@H](O)[C@@H](O[C@H]6[C@H](O)[C@@H](O)[C@@H](O[C@H]7[C@H](O)[C@@H](O)[C@@H](O[C@H]8[C@H](O)[C@@H](O)[C@@H](O[C@H]1[C@H](O)[C@H]2O)O[C@@H]8CO)O[C@@H]7CO)O[C@@H]6CO)O[C@@H]5CO)O[C@@H]4CO)O[C@@H]3CO` [β-Cyclodextrin, β-cyclodextrin] the “Product … of Strain C11” value [3] was “−” and the “Product … of Strain C9” value [4] was “−”.

For `O=C[C@@H](O)[C@H](O)[C@H](O)CO` [D-Arabinose, D-arabinose], the “Product … of Strain C11” value [3] was “± (a saccharide-transferred product was detected in an amount of less than one percent through transfer reaction to acceptor)” and the “Product … of Strain C9” value [4] was “± (a saccharide-transferred product was detected in an amount of less than one percent through transfer reaction to acceptor)”.
